How the values were obtained:
Göttingen Minipigs = test: 14-day dermal and systemic toxicity study in Göttingen Minipigs; settings: anhydrous composition, 14 days, dermal
Procedure: (§1) All groups received 2 mL of gel formulation, once a day, for 14 consecutive days, applied to approximately 10% of their body surface area on their back.
(§2) The study included daily observations of the site of application and scoring of erythema and edema (if present), daily general examinations including heart rate as well as pupil size assessments at days 1, 2, 3, 5, 7, 10 and 14. The frequent observations of heart rate and pupil size were intended to identify any potential systemic anticholinergic effect. Main organs were evaluated during necropsy and histopathology evaluation was completed for treated and untreated skin. Blood samples for chemistry and hematology analysis were collected as well as PK samples.
The estimated BBI-4000 dose applied to the skin in this study was 40 mg/kg/day for Group 3 and 20 mg/kg/day for Group 2.

[1] = Stability of approximately 2% BBI-4000 in four solvent systems (HPLC); format: physicochemical; settings: for BBI-4000 Assay, Change from Baseline (40° C./75%), reduction: Day 7
Procedure: Various formulations of approximately 2% BBI-4000 were made and their stabilities assessed. The solvent systems were as follows: • (a) solvent content: 100% water; • (b) solvent content: 60% water/40% ethanol; • (c) solvent content: 30% water/70% ethanol; • (d) solvent content: 100% ethanol. Each sample was assessed at baseline; after 7 days at 25° C./60% humidity; and after 7 days at 40° C./75% humidity. The percentage change from baseline for 40° C. after 7 days was calculated in each case. HPLC analysis was conducted as described in EXAMPLE 2 below.
There is clearly a dramatic difference in the stability of the anhydrous ethanol formulation compared to the water-containing formulations.

[2] = tested on: subjects with axillary hyperhidrosis; test: Study BBI-4000-CL-101: efficacy, gravimetric sweat production and HDSS; format: in vivo, human
Procedure: Efficacy was assessed by the change in gravimetrically measured sweat production and the change in hyperhidrosis disease severity scale (HDSS) from baseline to Day 15 (end of therapy).
For the gravimetric assessment, sweat production was measured by placing filter paper (pre-weighed) on the axilla for 5 minutes while the subject was in a semi-reclining position at room temperature. The filter paper was covered with plastic during exposure to the axilla, and was then weighed following the 5-minute exposure period to calculate the amount of sweat produced.
For the HDSS, subjects rated the severity of their hyperhidrosis on a 4-point scale (1,2, 3, or 4) based on the level of interference with their daily activities.

[3] = Toxicokinetics (PK samples) in the 14-day Göttingen Minipig study; format: in vivo, Göttingen Minipigs
Procedure: as §1, §2

[4] = HPLC assay and impurities of aqueous BBI-4000 gel formulations at differing pH; format: physicochemical; settings: Day 7
Procedure: The standards were prepared in duplicate by weighing 2.0±0.1 mg of BBI-4000 into 1 mL volumetric flasks. Dissolved and diluted to volume with acetonitrile and mixed by inversion.
Gel samples were prepared in duplicate at a target concentration of 2 mg/ml in a 5-mL volumetric flask. Added 1.5 ml H2O and mixed to disperse the sample. Diluted to volume with acetonitrile and filtered an aliquot through a syringe filter.
The liquid chromatographic system was set-up as follows: • HPLC Column: XBridge Shield RP18, 4.6×150 mm, 3.5 μm • Column Temp.: 25±1° C. • Sample Temp.: ambient • Flow Rate: 1.5 mL/min • Injection Volume: 10 μL • UV Detection: 220 nm • Run Time: 20 minutes

[5] = solvent 100% ethanol, Day 7 @ 25° C./60%

SMILES: CCOC(=O)C[N@+]1(C)CCC(OC(=O)[C@](O)(c2ccccc2)C2CCCC2)C1.[Br-] (stereo partly drawn) [BBI-4000, (2R,3′R) 3-(2-cyclopentyl-2-phenyl-2-hydroxyacetoxy)-1-(ethoxycarbonylmethyl)-1-methylpyrrolidinium bromide]
- Histopathology analysis of treated skin (Göttingen Minipigs): unremarkable and identical to non-treated and vehicle treated skin
- Stability in words: baseline amount of BBI-4000 retained ([1]; 100% ethanol (absolute or anhydrous), 7 days at 40° C.): essentially maintained the baseline amount of BBI-4000
- BBI-4000 Assay, Change from Baseline (40° C./75%), reduction ([1]; solvent 30% water, 70% ethanol): reduction 5%
- BBI-4000 Main Hydrolysis Products (RRT-0.79-0.84) ([1]; solvent 30% water, 70% ethanol, Day 7 @ 25° C./60%): 0.84%
- BBI-4000 Main Hydrolysis Products (RRT-0.79-0.84) ([1]; solvent 30% water, 70% ethanol, Day 7 @ 40° C./75%): 3.50%
- BBI-4000 Main Hydrolysis Products (RRT-0.79-0.84) ([1]; solvent 30% water, 70% ethanol, baseline): 0
- BBI-4000 Assay, Change from Baseline (40° C./75%), reduction ([1]; solvent 60% water, 40% ethanol): reduction 5%
- BBI-4000 Main Hydrolysis Products (RRT-0.79-0.84) ([1]; solvent 60% water, 40% ethanol, Day 7 @ 25° C./60%): 0.83%
- BBI-4000 Main Hydrolysis Products (RRT-0.79-0.84) ([1]; solvent 60% water, 40% ethanol, Day 7 @ 40° C./75%): 3.40%
- BBI-4000 Main Hydrolysis Products (RRT-0.79-0.84) ([1]; solvent 60% water, 40% ethanol, baseline): 0
- BBI-4000 Assay, Change from Baseline (40° C./75%), reduction ([1]; solvent 100% ethanol): reduction <1%
- BBI-4000 Assay [1, 5]: 2%
- BBI-4000 Main Hydrolysis Products (RRT-0.79-0.84) [1, 5]: 0
- BBI-4000 Main Hydrolysis Products (RRT-0.79-0.84) ([1]; solvent 100% ethanol, Day 7 @ 40° C./75%): 0
- BBI-4000 Main Hydrolysis Products (RRT-0.79-0.84) ([1]; solvent 100% ethanol, baseline): 0
- BBI-4000 Assay, Change from Baseline (40° C./75%), reduction ([1]; solvent 100% water): reduction 9.5%
- BBI-4000 Main Hydrolysis Products (RRT-0.79-0.84) ([1]; solvent 100% water, Day 7 @ 25° C./60%): 1.90%
- BBI-4000 Assay ([1]; solvent 100% water, Day 7 @ 40° C./75%): 1.80%
- BBI-4000 Main Hydrolysis Products (RRT-0.79-0.84) ([1]; solvent 100% water, baseline): 0
- Comparison of 10% gel and 5% gel (sweat reduction and HDSS improvement) ([2]; Cohort 2, small sample size, no definitive conclusion): BBI-4000 10% gel performed better than BBI-4000 5% gel
- Subjects reporting a >2-point improvement in HDSS ([2]; Day 15, 5% and 10% gel aggregated (8 of 12)): 67%
- Proportion of subjects with at least a 50% reduction in sweat production ([2]; Day 15, 5% and 10% gel aggregated (9 of 12)): 75%
- Time at which the highest concentration was observed ([3]; after Day-14 dosing, minipig receiving 20% BBI-4000): 2 h
- Systemic exposure (PK analysis) ([3]; dermal 10% and 20% gel, 14 days): variable, dose related systemic exposure
- Stability of the aqueous formulation system, in words [4]: lack of stability of this formulation system

From patent US12398102B2, “Formulation for soft anticholinergic analogs” (BODOR LABORATORIES, INC., priority 2014, dated 2025)
